Test results from patent publication US20170190671A1, “BIS(ARYL)CATECHOL DERIVATIVES AS HERBICIDES” (E I DU PONT DE NEMOURS AND COMPANY, priority 2014, published 2017).

How the values were obtained:
Experiment in all cases: Test E preemergence
Type in all cases: in vivo
Settings in all cases: scale 0 to 100
[1] = tested on: Brazilian crabgrass (Digitaria horizontalis)
Source text: (§1) Seeds of plant species selected from corn (Zea mays), soybean (Glycine max), velvetleaf (Abutilon theophrasti), cocklebur (common cocklebur, Xanthium strumarium), lambsquarters (Chenopodium album), wild poinsettia (Euphorbia heterophylla), palmer pigweed (Amaranthus palmeri), waterhemp (common waterhemp, Amaranthus rudis), surinam grass (Brachiaria decumbens), large (Lg) crabgrass (Digitaria sanguinalis), Brazilian crabgrass (Digitaria horizontalis), fall panicum (Panicum dichotomiflorum), giant foxtail (Setaria faberii), green foxtail (Setaria viridis), goosegrass (Eleusine indica), johnsongrass (Sorghum halepense), ragweed (common ragweed, Ambrosia elatior), barnyardgrass (Echinochloa crus-galli), sandbur (southern sandbur, Cenchrus echinatus), arrowleaf sida (Sida rhombifolia), Italian ryegrass (Lolium multiflorum), dayflower (Virginia (VA) dayflower, Commelina virginica), field bindweed (Convolvulus arvensis), morningglory (Ipomoea coccinea), nightshade (eastern black nightshade, Solanum ptycanthum), kochia (Kochia scoparia), yellow nutsedge (Cyperus esculentus), horseweed (Conyza canadensis), and hairy beggarticks (Bidens pilosa), were planted into a silt loam soil and treated preemergence with test chemicals formulated in a non-phytotoxic solvent mixture which included a surfactant.
(§2) At the same time, plants from these crop and weed species and also waterhemp_RES1, (ALS & Triazine resistant common waterhemp, Amaranthus rudis), and waterhemp_RES2, (ALS & HPPD resistant common waterhemp, Amaranthus rudis) were planted in pots containing Redi-Earth® planting medium (Scotts Company, 14111 Scottslawn Road, Marysville, Ohio 43041) comprising spaghnum peat moss, vermiculite, wetting agent and starter nutrients were treated with postemergence applications of test chemicals formulated in the same manner. Plants ranged in height from 2 to 18 cm for postemergence treatments (1- to 4-leaf stage). Treated plants and controls were maintained in a greenhouse for 14 to 21 days, after which time all species were compared to controls and visually evaluated. Plant response ratings, summarized in Table E, are based on a scale of 0 to 100 where 0 is no effect and 100 is complete control. A dash (-) response means no test result.

[2] = tested on: Italian ryegrass (Lolium multiflorum)
Source text: as §1, §2

[3] = tested on: arrowleaf sida (Sida rhombifolia)
Source text: as §1, §2

[4] = tested on: barnyardgrass (Echinochloa crus-galli)
Source text: as §1, §2

corn (Zea mays) = tested on: corn (Zea mays)
Source text: as §1, §2

[5] = tested on: dayflower (Virginia (VA) dayflower, Commelina virginica)
Source text: as §1, §2

[6] = tested on: fall panicum (Panicum dichotomiflorum)
Source text: as §1, §2

[7] = tested on: field bindweed (Convolvulus arvensis)
Source text: as §1, §2

[8] = tested on: giant foxtail (Setaria faberii)
Source text: as §1, §2

[9] = tested on: goosegrass (Eleusine indica)
Source text: as §1, §2

[10] = tested on: green foxtail (Setaria viridis)
Source text: as §1, §2

[11] = tested on: hairy beggarticks (Bidens pilosa)
Source text: as §1, §2

kochia (Kochia scoparia) = tested on: kochia (Kochia scoparia)
Source text: as §1, §2

[12] = tested on: lambsquarters (Chenopodium album)
Source text: as §1, §2

[13] = tested on: large (Lg) crabgrass (Digitaria sanguinalis)
Source text: as §1, §2

[14] = tested on: morningglory (Ipomoea coccinea)
Source text: as §1, §2

[15] = tested on: nightshade (eastern black nightshade, Solanum ptycanthum)
Source text: as §1, §2

[16] = tested on: palmer pigweed (Amaranthus palmeri)
Source text: as §1, §2

[17] = tested on: sandbur (southern sandbur, Cenchrus echinatus)
Source text: as §1, §2

soybean (Glycine max) = tested on: soybean (Glycine max)
Source text: as §1, §2

[18] = tested on: yellow nutsedge (Cyperus esculentus)
Source text: as §1, §2

N#Cc1cccc(Oc2ncc(Cl)cn2)c1Oc1ncc(C(F)(F)F)cn1 [Compound 38, 3-[(5-chloro-2-pyrimidinyl)oxy]-2-[[5-(trifluoromethyl)-2-pyrimidinyl]oxy]-benzonitrile]
20: Plant response rating, Dayflower, VA ([5]; 62 g ai/ha) | Plant response rating, Nutsedge, Yellow ([18]; 62 g ai/ha)
30: Plant response rating, Goosegrass ([9]; 16 g ai/ha) | Plant response rating, Foxtail, Green ([10]; 31 g ai/ha)
98: Plant response rating, Crabgrass, Brazil ([1]; 31 g ai/ha) | Plant response rating, Panicum, Fall ([6]; 31 g ai/ha) | Plant response rating, Kochia (kochia (Kochia scoparia); 31 g ai/ha) | Plant response rating, Lambsquarters ([12]; 16 g ai/ha) | Plant response rating, Nightshade ([15]; 62 g ai/ha) | Plant response rating, Pigweed, Palmer ([16]; 62 g ai/ha)
80: Plant response rating, Crabgrass, Brazil ([1]; 16 g ai/ha) | Plant response rating, Ryegrass, Italian ([2]; 125 g ai/ha) | Plant response rating, Arrowleaf Sida ([3]; 62 g ai/ha) | Plant response rating, Kochia (kochia (Kochia scoparia); 16 g ai/ha) | Plant response rating, Sandbur ([17]; 125 g ai/ha) | Plant response rating, Soybean (soybean (Glycine max); 125 g ai/ha)
35: Plant response rating, Corn (corn (Zea mays); 62 g ai/ha) | Plant response rating, Field Bindweed ([7]; 16 g ai/ha) | Plant response rating, Beggarticks ([11]; 125 g ai/ha) | Plant response rating, Morningglory ([14]; 125 g ai/ha) | Plant response rating, Sandbur ([17]; 62 g ai/ha)
75: Plant response rating, Crabgrass, Large ([13]; 31 g ai/ha)
15: Plant response rating, Soybean (soybean (Glycine max); 16 g ai/ha) | Plant response rating, Soybean (soybean (Glycine max); 31 g ai/ha)
65: Plant response rating, Ryegrass, Italian ([2]; 62 g ai/ha) | Plant response rating, Field Bindweed ([7]; 125 g ai/ha) | Plant response rating, Nutsedge, Yellow ([18]; 125 g ai/ha)
10: Plant response rating, Barnyardgrass ([4]; 31 g ai/ha)
25: Plant response rating, Ryegrass, Italian ([2]; 31 g ai/ha)
50: Plant response rating, Arrowleaf Sida ([3]; 31 g ai/ha) | Plant response rating, Corn (corn (Zea mays); 125 g ai/ha) | Plant response rating, Goosegrass ([9]; 31 g ai/ha) | Plant response rating, Crabgrass, Large ([13]; 16 g ai/ha) | Plant response rating, Morningglory ([14]; 62 g ai/ha)
95: Plant response rating, Field Bindweed ([7]; 62 g ai/ha) | Plant response rating, Nightshade ([15]; 31 g ai/ha) | Plant response rating, Soybean (soybean (Glycine max); 62 g ai/ha)
0: Plant response rating, Ryegrass, Italian ([2]; 16 g ai/ha) | Plant response rating, Barnyardgrass ([4]; 16 g ai/ha) | Plant response rating, Corn (corn (Zea mays); 16 g ai/ha) | Plant response rating, Corn (corn (Zea mays); 31 g ai/ha) | Plant response rating, Dayflower, VA ([5]; 16 g ai/ha) | Plant response rating, Dayflower, VA ([5]; 31 g ai/ha) | Plant response rating, Panicum, Fall ([6]; 16 g ai/ha) | Plant response rating, Beggarticks ([11]; 16 g ai/ha) | Plant response rating, Beggarticks ([11]; 31 g ai/ha) | Plant response rating, Beggarticks ([11]; 62 g ai/ha) | Plant response rating, Morningglory ([14]; 16 g ai/ha) | Plant response rating, Morningglory ([14]; 31 g ai/ha) | Plant response rating, Sandbur ([17]; 16 g ai/ha) | Plant response rating, Sandbur ([17]; 31 g ai/ha) | Plant response rating, Nutsedge, Yellow ([18]; 16 g ai/ha) | Plant response rating, Nutsedge, Yellow ([18]; 31 g ai/ha)
60: Plant response rating, Arrowleaf Sida ([3]; 16 g ai/ha) | Plant response rating, Dayflower, VA ([5]; 125 g ai/ha) | Plant response rating, Pigweed, Palmer ([16]; 16 g ai/ha)
70: Plant response rating, Barnyardgrass ([4]; 62 g ai/ha) | Plant response rating, Field Bindweed ([7]; 31 g ai/ha) | Plant response rating, Foxtail, Giant ([8]; 31 g ai/ha)
100: Plant response rating, Crabgrass, Brazil ([1]; 62 g ai/ha) | Plant response rating, Crabgrass, Brazil ([1]; 125 g ai/ha) | Plant response rating, Arrowleaf Sida ([3]; 125 g ai/ha) | Plant response rating, Panicum, Fall ([6]; 62 g ai/ha) | Plant response rating, Panicum, Fall ([6]; 125 g ai/ha) | Plant response rating, Foxtail, Giant ([8]; 62 g ai/ha) | Plant response rating, Foxtail, Giant ([8]; 125 g ai/ha) | Plant response rating, Goosegrass ([9]; 125 g ai/ha) | Plant response rating, Foxtail, Green ([10]; 62 g ai/ha) | Plant response rating, Foxtail, Green ([10]; 125 g ai/ha) | Plant response rating, Kochia (kochia (Kochia scoparia); 62 g ai/ha) | Plant response rating, Kochia (kochia (Kochia scoparia); 125 g ai/ha) | Plant response rating, Lambsquarters ([12]; 31 g ai/ha) | Plant response rating, Lambsquarters ([12]; 62 g ai/ha) | Plant response rating, Lambsquarters ([12]; 125 g ai/ha) | Plant response rating, Crabgrass, Large ([13]; 62 g ai/ha) | Plant response rating, Crabgrass, Large ([13]; 125 g ai/ha) | Plant response rating, Nightshade ([15]; 125 g ai/ha) | Plant response rating, Pigweed, Palmer ([16]; 31 g ai/ha) | Plant response rating, Pigweed, Palmer ([16]; 125 g ai/ha)
90: Plant response rating, Barnyardgrass ([4]; 125 g ai/ha) | Plant response rating, Goosegrass ([9]; 62 g ai/ha)
5: Plant response rating, Foxtail, Giant ([8]; 16 g ai/ha) | Plant response rating, Foxtail, Green ([10]; 16 g ai/ha) | Plant response rating, Nightshade ([15]; 16 g ai/ha)
